Laboratory results as given in patent US20130137772A1, “HYDROXYPOLYAMINE SALTS” (priority 2011, published 2013).
Several values for one entry are separate records, joined by “and”; a condition that tells them apart may be missing. Identical values can stand only once.

Experiment: Tissue distribution and metabolism: polyamine content of kidney, liver and pancreas via HPLC
Assay type: in vivo, Female CD-1 mice
Protocol: The tissue distribution and metabolism of DEHSPM, (HO)2DEHSPM HCl Salt and (HO)2DEHSPM Mesylate Salt in various organs were evaluated utilizing the following protocol:
Tissue Distribution and Metabolism of DEHSPM, (HO)2DEHSPM HCl Salt and (HO)2DEHSPM Mesylate Salt
• 1) DEHSPM, (HO)2DEHSPM HCl salt, and (HO)2DEHSPM mesylate salt were dissolved in sterile normal saline; the pH was not adjusted. • 2) Female CD-1 mice were given the drugs at equimolar dosages intraperitoneally once daily for 5 days. • 3) The animals, n=3-4 per group, were euthanized 4, 8, or 24 h post-last dose. • 4) The kidney, liver, and pancreas were removed and assessed for their polyamine content via HPLC analysis. • 5) The polyamine concentration data (mean±STD) are expressed as nmol/g wet weight of tissue. SPM, spermine; SPD, spermidine; PUT, putrescine; N.D., not determined. • 6) A one-tailed t test assuming unequal variance was performed on the tissue polyamine concentration data. A value of p<0.05 was considered significant.

[1] = kidney, 4 h post-last dose, HCl salt 20 mg/kg/d IP x 5 d
[2] = kidney, 8 h post-last dose, HCl salt 20 mg/kg/d IP x 5 d
[3] = kidney, 24 h post-last dose, HCl salt 20 mg/kg/d IP x 5 d
[4] = liver, 4 h post-last dose, HCl salt 20 mg/kg/d IP x 5 d
[5] = liver, 8 h post-last dose, HCl salt 20 mg/kg/d IP x 5 d
[6] = liver, 24 h post-last dose, HCl salt 20 mg/kg/d IP x 5 d
[7] = liver, 24 h post-last dose, HCl salt 20 mg/kg/d IP x 5 d, listed as (HO)2DEHSPM•4HCl Salt
[8] = pancreas, 4 h post-last dose, HCl salt 20 mg/kg/d IP x 5 d
[9] = pancreas, 8 h post-last dose, HCl salt 20 mg/kg/d IP x 5 d
[10] = pancreas, 24 h post-last dose, HCl salt 20 mg/kg/d IP x 5 d
[11] = kidney, 4 h post-last dose, mesylate salt 30.3 mg/kg/d IP x 5 d
[12] = kidney, 8 h post-last dose, mesylate salt 30.3 mg/kg/d IP x 5 d
[13] = kidney, 24 h post-last dose, mesylate salt 30.3 mg/kg/d IP x 5 d
[14] = liver, 4 h post-last dose, mesylate salt 30.3 mg/kg/d IP x 5 d
[15] = liver, 8 h post-last dose, mesylate salt 30.3 mg/kg/d IP x 5 d
[16] = liver, 24 h post-last dose, mesylate salt 30.3 mg/kg/d IP x 5 d
[17] = pancreas, 4 h post-last dose, mesylate salt 30.3 mg/kg/d IP x 5 d
[18] = pancreas, 8 h post-last dose, mesylate salt 30.3 mg/kg/d IP x 5 d
[19] = pancreas, 24 h post-last dose, mesylate salt 30.3 mg/kg/d IP x 5 d

For `CCNCCC(O)CNCCCCNCC(O)CCNCC.Cl.Cl.Cl.Cl` (stereo not shown) [(HO)2DEHSPM HCl Salt], the “(HO)2DEHSPM 4HCl Salt concentration” value [1] was 852 ± 202 nmol/g wet weight of tissue, the “(HO)2HSPM concentration” value [1] was 50 ± 19 nmol/g wet weight of tissue and the PUT concentration [1] was 31 ± 27 nmol/g wet weight of tissue. The SPD concentration [1] was 327 ± 86 nmol/g wet weight of tissue, the SPM concentration [1] was 544 nmol/g wet weight of tissue and the SPM concentration (kidney, 4 h post-last dose, HCl salt 20 mg/kg/d IP x 5 d, listed as (HO)2DEHSPM•4HCl Salt) was 544 ± 14 nmol/g wet weight of tissue. For the same compound, the “(HO)2DEHSPM 4HCl Salt concentration” value [2] was 871 ± 85 nmol/g wet weight of tissue, the “(HO)2HSPM concentration” value [2] was 70 ± 6 nmol/g wet weight of tissue and the PUT concentration [2] was 29 ± 5 nmol/g wet weight of tissue. The SPD concentration [2] was 275 ± 16 nmol/g wet weight of tissue, the SPM concentration [2] was 641 nmol/g wet weight of tissue and the SPM concentration (kidney, 8 h post-last dose, HCl salt 20 mg/kg/d IP x 5 d, listed as (HO)2DEHSPM•4HCl Salt) was 641 ± 33 nmol/g wet weight of tissue. The “(HO)2DEHSPM 4HCl Salt concentration” value [3] was 618 ± 82 nmol/g wet weight of tissue, the “(HO)2HSPM concentration” value [3] was 76 ± 7 nmol/g wet weight of tissue and the PUT concentration [3] was 28 ± 6 nmol/g wet weight of tissue. The SPD concentration [3] was 304 ± 30 nmol/g wet weight of tissue, the SPM concentration [3] was 588 nmol/g wet weight of tissue and the SPM concentration (kidney, 24 h post-last dose, HCl salt 20 mg/kg/d IP x 5 d, listed as (HO)2DEHSPM•4HCl Salt) was 588 ± 5 nmol/g wet weight of tissue. For the same compound, the “(HO)2DEHSPM 4HCl Salt concentration” value [4] was 248 ± 17 nmol/g wet weight of tissue, the “(HO)2HSPM concentration” value [4] was 70 ± 5 nmol/g wet weight of tissue and the PUT concentration [4] was 0 ± 0 nmol/g wet weight of tissue. For the same compound, the SPD concentration [4] was 1050 ± 9 nmol/g wet weight of tissue, the SPM concentration [4] was 875 nmol/g wet weight of tissue and the SPM concentration (liver, 4 h post-last dose, HCl salt 20 mg/kg/d IP x 5 d, listed as (HO)2DEHSPM•4HCl Salt) was 875 ± 128 nmol/g wet weight of tissue. The “(HO)2DEHSPM 4HCl Salt concentration” value [5] was 228 ± 55 nmol/g wet weight of tissue, the “(HO)2HSPM concentration” value [5] was 103 ± 14 nmol/g wet weight of tissue and the PUT concentration [5] was 20 ± 17 nmol/g wet weight of tissue. For the same compound, the SPD concentration [5] was 1175 ± 190 nmol/g wet weight of tissue, the SPM concentration [5] was 1071 nmol/g wet weight of tissue and the SPM concentration (liver, 8 h post-last dose, HCl salt 20 mg/kg/d IP x 5 d, listed as (HO)2DEHSPM•4HCl Salt) was 1071 ± 7 nmol/g wet weight of tissue. For the same compound, the “(HO)2DEHSPM 4HCl Salt concentration” value [6] was 136 ±50 nmol/g wet weight of tissue, the “(HO)2HSPM concentration” value [6] was 102 ± 13 nmol/g wet weight of tissue and the PUT concentration [6] was 7 ± 14 nmol/g wet weight of tissue. The SPD concentration [6] was 884 ± 156 nmol/g wet weight of tissue, the SPM concentration [6] was 837 nmol/g wet weight of tissue and the “(HO)2DEHSPM 4HCl Salt concentration” value [7] was 136 ± 50 nmol/g wet weight of tissue. For the same compound, the SPM concentration [7] was 837 ± 13 nmol/g wet weight of tissue, the “(HO)2DEHSPM 4HCl Salt concentration” value [8] was 217 ± 27 nmol/g wet weight of tissue and the “(HO)2HSPM concentration” value [8] was 56 ± 11 nmol/g wet weight of tissue. The PUT concentration [8] was 32 ± 3 nmol/g wet weight of tissue, the SPD concentration [8] was 5868 ± 505 nmol/g wet weight of tissue and the SPM concentration [8] was 1153 nmol/g wet weight of tissue and 1153 ± 159 nmol/g wet weight of tissue. The “(HO)2DEHSPM 4HCl Salt concentration” value [9] was 223 ± 54 nmol/g wet weight of tissue, the “(HO)2HSPM concentration” value [9] was 60 ± 9 nmol/g wet weight of tissue and the PUT concentration [9] was 50 ± 7 nmol/g wet weight of tissue. For the same compound, the SPD concentration [9] was 6343 ± 596 nmol/g wet weight of tissue, the SPM concentration [9] was 1476 nmol/g wet weight of tissue and 1476 ± 101 nmol/g wet weight of tissue and the “(HO)2DEHSPM 4HCl Salt concentration” value [10] was 209 ± 37 nmol/g wet weight of tissue. For the same compound, the “(HO)2HSPM concentration” value [10] was 58 ± 14 nmol/g wet weight of tissue, the PUT concentration [10] was 36 ± 5 nmol/g wet weight of tissue and the SPD concentration [10] was 6386 ± 309 nmol/g wet weight of tissue. The SPM concentration [10] was 1177 nmol/g wet weight of tissue and 1177 ± 161 nmol/g wet weight of tissue.
With `CCNCCC(O)CNCCCCNCC(O)CCNCC.CS(=O)(=O)O.CS(=O)(=O)O.CS(=O)(=O)O.CS(=O)(=O)O` (stereo not shown) [(HO)2DEHSPM Mesylate Salt] the “(HO)2DEHSPM Mesylate concentration” value [11] was 541 ± 65 nmol/g wet weight of tissue, the “(HO)2HSPM concentration” value [11] was 77 ± 6 nmol/g wet weight of tissue and the PUT concentration [11] was 7 ± 12 nmol/g wet weight of tissue. The SPD concentration [11] was 404 ± 24 nmol/g wet weight of tissue, the SPM concentration [11] was 680 nmol/g wet weight of tissue and 680 ± 15 nmol/g wet weight of tissue and the “(HO)2DEHSPM Mesylate concentration” value [12] was 533 ± 84 nmol/g wet weight of tissue. For the same compound, the “(HO)2HSPM concentration” value [12] was 89 ± 14 nmol/g wet weight of tissue, the PUT concentration [12] was 0 ± 0 nmol/g wet weight of tissue and the SPD concentration [12] was 265 ± 5 nmol/g wet weight of tissue. The SPM concentration [12] was 655 nmol/g wet weight of tissue and 655 ± 41 nmol/g wet weight of tissue, the “(HO)2DEHSPM Mesylate concentration” value [13] was 360 ± 43 nmol/g wet weight of tissue and the “(HO)2HSPM concentration” value [13] was 97 ± 5 nmol/g wet weight of tissue. The PUT concentration [13] was 26 ± 5 nmol/g wet weight of tissue, the SPD concentration [13] was 239 ± 9 nmol/g wet weight of tissue and the SPM concentration [13] was 601 nmol/g wet weight of tissue and 601 ± 29 nmol/g wet weight of tissue. For the same compound, the “(HO)2DEHSPM Mesylate concentration” value [14] was 168 ± 32 nmol/g wet weight of tissue, the “(HO)2HSPM concentration” value [14] was 79 ± 7 nmol/g wet weight of tissue and the PUT concentration [14] was 0 ± 0 nmol/g wet weight of tissue. The SPD concentration [14] was 1044 ± 177 nmol/g wet weight of tissue, the SPM concentration [14] was 908 nmol/g wet weight of tissue and 908 ± 55 nmol/g wet weight of tissue and the “(HO)2DEHSPM Mesylate concentration” value [15] was 135 ± 3 nmol/g wet weight of tissue. For the same compound, the “(HO)2HSPM concentration” value [15] was 116 ± 15 nmol/g wet weight of tissue, the PUT concentration [15] was 0 ± 0 nmol/g wet weight of tissue and the SPD concentration [15] was 1108 ± 146 nmol/g wet weight of tissue. For the same compound, the SPM concentration [15] was 987 nmol/g wet weight of tissue and 987 ± 49 nmol/g wet weight of tissue, the “(HO)2DEHSPM Mesylate concentration” value [16] was 73 ± 11 nmol/g wet weight of tissue and the “(HO)2HSPM concentration” value [16] was 88 ± 5 nmol/g wet weight of tissue. For the same compound, the PUT concentration [16] was 0 ± 0 nmol/g wet weight of tissue, the SPD concentration [16] was 910 ±10 nmol/g wet weight of tissue and the SPM concentration [16] was 807 nmol/g wet weight of tissue and 807 ± 138 nmol/g wet weight of tissue. The “(HO)2DEHSPM Mesylate concentration” value [17] was 131 ± 27 nmol/g wet weight of tissue, the “(HO)2HSPM concentration” value [17] was 50 ± 6 nmol/g wet weight of tissue and the PUT concentration [17] was 36 ± 10 nmol/g wet weight of tissue. The SPD concentration [17] was 5717 ± 426 nmol/g wet weight of tissue, the SPM concentration [17] was 1108 nmol/g wet weight of tissue and 1108 ± 15 nmol/g wet weight of tissue and the “(HO)2DEHSPM Mesylate concentration” value [18] was 153 ± 11 nmol/g wet weight of tissue. The “(HO)2HSPM concentration” value [18] was 70 ± 2 nmol/g wet weight of tissue, the PUT concentration [18] was 57 ± 15 nmol/g wet weight of tissue and the SPD concentration [18] was 6460 ± 280 nmol/g wet weight of tissue. For the same compound, the SPM concentration [18] was 1333 nmol/g wet weight of tissue and 1333 ± 103 nmol/g wet weight of tissue, the “(HO)2DEHSPM Mesylate concentration” value [19] was 134 ± 14 nmol/g wet weight of tissue and the “(HO)2HSPM concentration” value [19] was 75 ± 4 nmol/g wet weight of tissue. For the same compound, the PUT concentration [19] was 31 ± 3 nmol/g wet weight of tissue, the SPD concentration [19] was 6147 ± 223 nmol/g wet weight of tissue and the SPM concentration [19] was 1273 ± 210 nmol/g wet weight of tissue.
